Measured values from patent publication US20230085307A1, “PYRIDAZINONE COMPOUND AND HERBICIDE” (NISSAN CHEMICAL CORPORATION, priority 2019, published 2023).

Assays:
Japanese bulrush = test: Test Example 1: herbicidal activity, application before weed generation under submerged conditions (Table 16, symbol B); format: in vivo, Japanese bulrush (Schoenoplectus juncoides); details: 320 g/ha applied herbicide
Method in brief: (§1)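 Emulsion formulation, water-diluted to set dose, was put onto the flooded surface (4 cm depth, alluvial soil) the same day weeds were sown and 2.5-leaf rice transplanted. After 3 weeks at 25-30 °C under glass, each species was rated 0 (≤5% kill) to 5 (≥90% kill).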

oval-leafed pondweed = test: Test Example 1: herbicidal activity, application before weed generation under submerged conditions (Table 16, symbol C); format: in vivo, oval-leafed pondweed (Monochoria vaginalis); details: 320 g/ha applied herbicide
Method in brief: as §1

late watergrass = test: Test Example 2: herbicidal activity, application during weed generation under submerged conditions (Table 17, symbol A); format: in vivo, late watergrass (Echinochloa oryzicola); details: AAH 320 g/ha; application during weed generation, submerged conditions
Method in brief: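 Steps: fill Wagner pots with alluvial soil; add water to give 4 cm depth; sow the species mixed; grow under glass at 25–30° C.; at 1–2 leaves apply water-diluted emulsion formulation to the water surface at a fixed herbicide amount; score after 3 weeks.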

barnyard grass [1] = test: Test Example 3: herbicidal effect by foliage application, Wagner pot (Table 18, symbol H); format: in vivo, barnyard grass (Echinochloa crus-galli); details: 320 g/ha
Method in brief: (§2)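 Plants were sown in alluvial soil held under 0.1–0.5 cm standing water and grown 14 days in a greenhouse at 25–30 °C. An emulsifiable formulation, water-diluted to the set dose, was then sprayed onto the foliage, and effects were scored three weeks later using previously defined criteria.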

Chinese sprangletop = test: Test Example 3: herbicidal effect by foliage application, Wagner pot (Table 18, symbol D); format: in vivo, chinese sprangletop (Leptochloa chinensis); details: 320 g/ha
Method in brief: as §2

rice flat sedge = test: Test Example 3: herbicidal effect by foliage application, Wagner pot (Table 18, symbol E); format: in vivo, rice flat sedge (Cyperus iria); details: 320 g/ha
Method in brief: as §2

barnyard grass [2] = test: Test Example 4: herbicidal effect by soil treatment (Table 19, symbol H); format: in vivo, barnyard grass (Echinochloa crus-galli); details: AAH 320 g/ha
Method in brief: (§3)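 Emulsion of test compound, water-diluted to predetermined amount, sprayed on soil after sowing (seed depth ~1.5 cm, sterilized diluvial soil). Greenhouse, 25–30° C. Effect graded at three weeks post-spray.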

wild oat [3] = test: Test Example 4: herbicidal effect by soil treatment (Table 19, symbol I); format: in vivo, wild oat (Avena fatua); details: AAH 320 g/ha
Method in brief: as §3

windgrass [4] = test: Test Example 4: herbicidal effect by soil treatment (Table 19, symbol L); format: in vivo, windgrass (Apera spica-venti); details: AAH 320 g/ha
Method in brief: as §3

velvetleaf [5] = test: Test Example 4: herbicidal effect by soil treatment (Table 19, symbol M); format: in vivo, velvetleaf (Abutilon theophrasti); details: AAH 320 g/ha
Method in brief: as §3

lambsquarters = test: Test Example 4: herbicidal effect by soil treatment (Table 19, symbol O); format: in vivo, lambsquarters (Chenopodium album); details: AAH 320 g/ha
Method in brief: as §3

green foxtail = test: Test Example 5: herbicidal effect by foliage application, plastic box (Table 20, symbol G); format: in vivo, green foxtail (Setaria viridis); details: foliage application, AAH 320 g/ha, three weeks after application
Method in brief: (§4)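 Post-emergence foliar test in sterilized diluvial soil. Compound applied as water-diluted emulsion at a predetermined rate to 14-day-old plants; evaluation at three weeks.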

wild oat [6] = test: Test Example 5: herbicidal effect by foliage application, plastic box (Table 20, symbol I); format: in vivo, wild oat (Avena fatua); details: foliage application, AAH 320 g/ha, three weeks after application
Method in brief: as §4

blackgrass = test: Test Example 5: herbicidal effect by foliage application, plastic box (Table 20, symbol J); format: in vivo, blackgrass (Alopecurus myosuroides); details: foliage application, AAH 320 g/ha, three weeks after application
Method in brief: as §4

windgrass [7] = test: Test Example 5: herbicidal effect by foliage application, plastic box (Table 20, symbol L); format: in vivo, windgrass (Apera spica-venti); details: foliage application, AAH 320 g/ha, three weeks after application
Method in brief: as §4

velvetleaf [8] = test: Test Example 5: herbicidal effect by foliage application, plastic box (Table 20, symbol M); format: in vivo, velvetleaf (Abutilon theophrasti); details: foliage application, AAH 320 g/ha, three weeks after application
Method in brief: as §4

chickweed = test: Test Example 5: herbicidal effect by foliage application, plastic box (Table 20, symbol P); format: in vivo, common chickweed (Stellaria media); details: foliage application, AAH 320 g/ha, three weeks after application
Method in brief: as §4

SMILES | Herbicidal effect on B: Japanese bulrush (grade 0-5) (Japanese bulrush) | Herbicidal effect on C: oval-leafed pondweed (grade 0-5) (oval-leafed pondweed) | herbicidal effect rating, A: late watergrass (late watergrass) | herbicidal effect on H (barnyard grass), rating 0-5 (barnyard grass [1]) | herbicidal effect on D (Chinese sprangletop), rating 0-5 (Chinese sprangletop) | herbicidal effect on E (rice flat sedge), rating 0-5 (rice flat sedge) | H: barnyard grass, herbicidal effect rating (barnyard grass [2]) | I: wild oat, herbicidal effect rating (wild oat [3]) | L: windgrass, herbicidal effect rating (windgrass [4]) | M: velvetleaf, herbicidal effect rating (velvetleaf [5]) | O: lambsquarters, herbicidal effect rating (lambsquarters) | G: green foxtail, herbicidal effect (green foxtail) | I: wild oat, herbicidal effect (wild oat [6]) | J: blackgrass, herbicidal effect (blackgrass) | L: windgrass, herbicidal effect (windgrass [7]) | M: velvetleaf, herbicidal effect (velvetleaf [8]) | P: chickweed, herbicidal effect (chickweed)
COCc1ccc(-c2sc3ccccc3c2-c2c(O)c(C)nn(C)c2=O)cc1 [1-131] | 1 (Herbicidal rate of 5% or more and less than 20%) | 0 (Herbicidal rate of 5% or less (almost no effect)) | 0 (Herbicidal rate of 5% or less (almost no effect)) | 5 (Herbicidal rate of 90% or more (almost completely withered)) | 4 (Herbicidal rate of 70% or more and less than 90%) | 5 (Herbicidal rate of 90% or more (almost completely withered)) | 5 (Herbicidal rate of 90% or more (almost completely withered)) | 2 (Herbicidal rate of 20% or more and less than 40%) | 2 (Herbicidal rate of 20% or more and less than 40%) | 5 (Herbicidal rate of 90% or more (almost completely withered)) | 5 (Herbicidal rate of 90% or more (almost completely withered)) | 5 (Herbicidal rate of 90% or more (almost completely withered)) | 4 (Herbicidal rate of 70% or more and less than 90%) | 4 (Herbicidal rate of 70% or more and less than 90%) | 4 (Herbicidal rate of 70% or more and less than 90%) | 5 (Herbicidal rate of 90% or more (almost completely withered)) | 5 (Herbicidal rate of 90% or more (almost completely withered))
Cc1nn(C)c(=O)c(-c2c(-c3ccc(OCc4ccccc4)cc3)sc3ccccc23)c1O [1-133] | 5 (Herbicidal rate of 90% or more (almost completely withered)) | 3 (Herbicidal rate of 40% or more and less than 70%) | 1 (Herbicidal rate of 5% or more and less than 20%) | 5 (Herbicidal rate of 90% or more (almost completely withered)) | 3 (Herbicidal rate of 40% or more and less than 70%) | 5 (Herbicidal rate of 90% or more (almost completely withered)) | 2 (Herbicidal rate of 20% or more and less than 40%) | 0 (Herbicidal rate of 5% or less (almost no effect)) | 0 (Herbicidal rate of 5% or less (almost no effect)) | 0 (Herbicidal rate of 5% or less (almost no effect)) | 1 (Herbicidal rate of 5% or more and less than 20%) | 5 (Herbicidal rate of 90% or more (almost completely withered)) | 0 (Herbicidal rate of 5% or less (almost no effect)) | 1 (Herbicidal rate of 5% or more and less than 20%) | 0 (Herbicidal rate of 5% or less (almost no effect)) | 0 (Herbicidal rate of 5% or less (almost no effect)) | 5 (Herbicidal rate of 90% or more (almost completely withered))
Cc1nn(C)c(=O)c(-c2c(-c3ccc(OCC4CC4(F)F)cc3)sc3ccccc23)c1O (centres unmarked) [1-138] | 3 (Herbicidal rate of 40% or more and less than 70%) | 3 (Herbicidal rate of 40% or more and less than 70%) | 0 (Herbicidal rate of 5% or less (almost no effect)) | 5 (Herbicidal rate of 90% or more (almost completely withered)) | 3 (Herbicidal rate of 40% or more and less than 70%) | 5 (Herbicidal rate of 90% or more (almost completely withered)) | 5 (Herbicidal rate of 90% or more (almost completely withered)) | 0 (Herbicidal rate of 5% or less (almost no effect)) | 0 (Herbicidal rate of 5% or less (almost no effect)) | 3 (Herbicidal rate of 40% or more and less than 70%) | 5 (Herbicidal rate of 90% or more (almost completely withered)) | 3 (Herbicidal rate of 40% or more and less than 70%) | 0 (Herbicidal rate of 5% or less (almost no effect)) | 5 (Herbicidal rate of 90% or more (almost completely withered)) | 5 (Herbicidal rate of 90% or more (almost completely withered)) | 4 (Herbicidal rate of 70% or more and less than 90%) | 5 (Herbicidal rate of 90% or more (almost completely withered))
CSCCOc1ccc(-c2sc3ccccc3c2-c2c(O)c(C)nn(C)c2=O)cc1 [1-141] | 0 (Herbicidal rate of 5% or less (almost no effect)) | 0 (Herbicidal rate of 5% or less (almost no effect)) | 0 (Herbicidal rate of 5% or less (almost no effect)) | 5 (Herbicidal rate of 90% or more (almost completely withered)) | 3 (Herbicidal rate of 40% or more and less than 70%) | 5 (Herbicidal rate of 90% or more (almost completely withered)) | 4 (Herbicidal rate of 70% or more and less than 90%) | 0 (Herbicidal rate of 5% or less (almost no effect)) | 3 (Herbicidal rate of 40% or more and less than 70%) | 4 (Herbicidal rate of 70% or more and less than 90%) | 5 (Herbicidal rate of 90% or more (almost completely withered)) | 5 (Herbicidal rate of 90% or more (almost completely withered)) | 5 (Herbicidal rate of 90% or more (almost completely withered)) | 5 (Herbicidal rate of 90% or more (almost completely withered)) | 5 (Herbicidal rate of 90% or more (almost completely withered)) | 4 (Herbicidal rate of 70% or more and less than 90%) | 5 (Herbicidal rate of 90% or more (almost completely withered))
